Reference: patent publication US20240122816A1, “ARTICLES FOR INDIRECT TRANSFER OF COSMETIC ACTIVES TO SKIN” (SYMRISE AG, priority 2019, published 2024)

Assay: Analysis of the bisabolol content on the skin (GC/MS of alcohol-pad extract) after transfer from laundered clothing article
Assay type: in vivo, human
Description: Protocol: • One cotton sock from the laundry described previously was inverted to expose the inner surface. • Left arm of a subject was washed with unfragranced soap followed by 95% alcohol wipe to remove any foreign material and soluble oils. • Rubbed previously laundered cotton sock with Symrelief onto subject's […]. Seven times on one side then 8 times on the other sock surface.
(§1) Protocol: • Applied 3 commercially available alcohol pads (which had been soaked in 95% ethanol) onto arm area. Allowed to dry completely. • The alcohol wipe pads were transferred into 1 oz glass jar and added 5 grams diethylether and allowed to extract for 2 hours. • Ether extract was concentrated to 100 μl under a nitrogen stream. • 2.5 μl was manually injected into a GC/MS equipt with a carbowax column and run with a splitless method. • Bisabolol peak was identified in the sample by the characteristic ions in the mass spectrum. • The control arm was treated in the same manner with no identified bisabolol.
Protocol: • One of a pair of cotton/poly socks from the laundry described previously was given to a test subject removed and blind codded. The sock was paired with a blind codded sock that was un-laundered. • The ventral surface of the subjects ankles were washed with unfragranced soap followed by 95% alcohol wipe to remove any foreign material and soluble oils. • The pair of socks were worn by a test subject for 8 hours in a normal use setting.
as §1, with “•” for “Protocol: •”, “12” for “3”, “bisabolol. […]” for “bisabolol.”

Measured: Bisabolol peak in skin wipe extract (GC/MS, characteristic ions)

CC(C)=CCC[C@](C)(O)C1CC=C(C)CC1 (stereo partly drawn) [Bisabolol, bisabolol]
identified: laundered cotton sock (softener with 5% Symcap G1 Bisabolol slurry) rubbed onto subject's arm, 7 and 8 times, 3 alcohol pads | laundered cotton/poly sock worn for 8 hours in normal use, 12 alcohol pads | laundered thermal shirt worn for 8 hours in normal use, upper arms, 12 alcohol pads
